Measurements taken from patent publication US20210000852A1, “POLYDATIN PACLITAXEL COMPOSITION, AND APPLICATION IN PREPARING MEDICAMENT FOR PREVENTING AND TREATING GASTRIC CANCER” (Tianjin Medical University Cancer Institute and Hospital, priority 2018, published 2021).

How the values were obtained:
[1] = system: human gastric cancer cells AGS; experiment: CCK-8 growth and proliferation activity, AGS cells; format: cell-based; conditions: for inhibition of the activity of gastric cancer cells (single agent): 24 h, concentration gradients; for IC50 / IC50 of AGS cells: treated for 24 h
Description: (§1) Human gastric cancer cell line SGC-7901 was purchased from Shanghai Genechem Co., Ltd. and human gastric cancer cell line AGS was purchased from Cell Bank of American Type Culture Collection (ATCC) (ATCC No. CRL-1739).
(§2) In FIG. 5, the mass ration of composition is as follows: (a) mPD: mPaclitaxel=22.65:1 (Example 3); (b) mPD: mPaclitaxel=45.29:1; (c) mPD: mPaclitaxel=90.59:1; (d) mPD: mPaclitaxel=226.48:1. In FIG. 6, the mass ration of composition is as follows: (a) mPD: mPaclitaxel=8.44:1; (b) mPD: mPaclitaxel=16.88:1; (c) mPD: mPaclitaxel=33.77:1 (Example 4).
(§3) In FIG. 7, the mass ration of composition is as follows: (a) mPD: mPactitaxel=45.29:1; (b) mPD: mPaclitaxel=90.59:1; (c) mPD: mPaclitaxel=226.48:1. In FIG. 8, the mass ration of composition is as follows: (a) mPD: mPaclitaxel=16.88:1; (b) mPD: mPaclitaxel=33.77:1.

[2] = system: human gastric cancer cells SGC-7901; experiment: CCK-8 growth and proliferation activity, SGC-7901 cells; format: cell-based; conditions: for inhibition of the activity of gastric cancer cells (single agent): SGC-7901, 24 h, concentration gradients; for IC50 / IC50 of SGC-7901 cells: SGC-7901, treated for 24 h
Description: as §1, §2, §3

| Compound | inhibition of the activity of gastric cancer cells (single agent) [1] | IC50 [1] [µM] | IC50 of AGS cells [1] [µg/mL] | inhibition of the activity of gastric cancer cells (single agent) [2] | IC50 [2] [µM] | IC50 of SGC-7901 cells [2] [µg/mL] |
| --- | --- | --- | --- | --- | --- | --- |
| CC(=O)O[C@H]1C(=O)[C@@]2(C)[C@H]([C@H](OC(=O)c3ccccc3)[C@]3(O)C[C@H](OC(=O)[C@H](O)[C@@H](NC(=O)c4ccccc4)c4ccccc4)C(C)=C1C3(C)C)[C@]1(OC(C)=O)CO[C@@H]1C[C@@H]2O [Paclitaxel] | inhibit the activity of both gastric cancer cells in a concentration-dependent manner | 3.34 | 6.3 | inhibit the activity of both gastric cancer cells in a concentration-dependent manner | 5.27 | 5.5 |
| Polydatin | inhibit the activity of both gastric cancer cells in a concentration-dependent manner | 56.2 | 53.5 | inhibit the activity of both gastric cancer cells in a concentration-dependent manner | 139 | 124.0 |
